# pEC50: −log10 of the molar value. Counter-ions that a name gives are not always drawn. Like-named read-outs stand apart in the source and are kept apart here.
# Experiments:
# [1] = test system: T. cruzi (Tulahuen strain); assay: microbe, parasite or virus in culture; type: cell-based, Trypanosoma cruzi; details: Trypanosoma cruzi, TULAHUEN, Fibroblast; for activity at 10 µM: 120 h, read-out: T. cruzi % growth @ 10 uM (Amastigotes)
# Protocol: Compounds were tested against T. cruzi (Tulahuen strain) stably expressing the beta-galactosidase gene as previously described. […] Fibroblasts were plated at a density of 2×10^3 per well in 96 well tissue culture plates. After 24 hours of incubation, 1×10^4 trypomastigotes/well were added to the fibroblasts and incubated for 4 hours before addition of the test compounds from the Spectrum Collection (10 µM final concentration). Cultures were incubated at 37°C for 5 days, then developed with chlorophenol red β-D-galactopyranoside as previously described. The percent inhibition is reported with standard deviation of the mean. […] Z-prime values were calculated for each 96-well plate based on positive (4 wells) and negative controls (4 wells).
# 3T3 fibroblast cells = assay: cells; type: cell-based, murine; details: Mus musculus, NIH3T3, 72 h, read-out: Mammalian (3T3) cell % growth at 10 uM
Structure (SMILES),activity at 10 µM ([1]; Table S2) [%],"activity at 10 µM (3T3 fibroblast cells; 10 uM, Table S2) [%]",other results
"CCOC(=O)C(CCc1ccccc1)NC1CCc2ccccc2N(CC(=O)O)C1=O (stereo not shown) [BENAZEPRIL HYDROCHLORIDE, 2-{3-[(1-ethoxy-1-oxo-4-phenylbutan-2-yl)amino]-2-oxo-2,3,4,5-tetrahydro-1H-1-benzazepin-1-yl}acetic acid hydrochloride]",1,66.8,–
"CC(Cc1cccc(C(F)(F)F)c1)NCCOC(=O)c1ccccc1 (stereo not shown) [BENFLUOREX, 2-({1-[3-(trifluoromethyl)phenyl]propan-2-yl}amino)ethyl benzoate]",21.6,96.6,–
"CC(C)COCC(CN(Cc1ccccc1)c1ccccc1)N1CCCC1 (stereo not shown) [BEPRIDIL, N-benzyl-N-[3-(2-methylpropoxy)-2-(pyrrolidin-1-yl)propyl]aniline hydrochloride]",24.4,89.6,–
"COc1ccc2cc3[n+](cc2c1OC)CCc1cc2c(cc1-3)OCO2 [BERBERINE, 16,17-dimethoxy-5,7-dioxa-13$l^5-azapentacyclo[11.8.0.0^{2,10}.0^{4,8}.0^{15,20}]henicosa-1(21),2,4(8),9,13,15,17,19-octaen-13-ylium]",4.1,75.8,–
"C=C(C)C1CCC2(CO)CCC3(C)C(CCC4C5(C)CCC(O)C(C)(C)C5CCC43C)C12 (stereo not shown) [BETULIN, 5-(hydroxymethyl)-1,2,14,18,18-pentamethyl-8-(prop-1-en-2-yl)pentacyclo[11.8.0.0^{2,10}.0^{5,9}.0^{14,19}]henicosan-17-ol]",9.7,100,–
"c1ccc(-c2ccc(C(c3ccccc3)n3ccnc3)cc2)cc1 (stereo not shown) [BIFONAZOLE, 1-[phenyl(4-phenylphenyl)methyl]-1H-imidazole]",0.7,93.6,–
"O=C(O)CC[N+](=O)[O-] [BOVINOCIDIN, 3-nitropropanoic acid]",14.1,–,activity at 10 µM (3T3 fibroblast cells): 88.6%
"CC(C)CC1C(=O)N2CCCC2C2(O)OC(NC(=O)C3C=C4c5cccc6[nH]c(Br)c(c56)CC4N(C)C3)(C(C)C)C(=O)N12 (stereo not shown) [BROMOCRIPTINE MESYLATE, 10-bromo-N-[2-hydroxy-7-(2-methylpropyl)-5,8-dioxo-4-(propan-2-yl)-3-oxa-6,9-diazatricyclo[7.3.0.0^{2,6}]dodecan-4-yl]-6-methyl-6,11-diazatetracyclo[7.6.1.0^{2,7}.0^{12,16}]hexadeca-1(15),2,9,12(16),13-pentaene-4-carboxamide; methanesulfonic acid]",2,92.1,–
"CCC1(O)C(=O)OCc2c1cc1n(c2=O)Cc2cc3ccccc3nc2-1 (stereo not shown) [CAMPTOTHECIN, 19-ethyl-19-hydroxy-17-oxa-3,13-diazapentacyclo[11.8.0.0^{2,11}.0^{4,9}.0^{15,20}]henicosa-1(21),2,4(9),5,7,10,15(20)-heptaene-14,18-dione]",3.9,–,activity at 10 µM (3T3 fibroblast cells): 94.3%
"CC(=O)OC1(C(C)=O)CCC2C3C=C(Cl)C4=CC(=O)CCC4(C)C3CCC21C (stereo not shown) [CHLORMADINONE ACETATE, 14-acetyl-8-chloro-2,15-dimethyl-5-oxotetracyclo[8.7.0.0^{2,7}.0^{11,15}]heptadeca-6,8-dien-14-yl acetate]",9.7,97.4,–
"CN(C)CCCN1c2ccccc2Sc2ccc(Cl)cc21 [CHLORPROMAZINE, [3-(2-chloro-10H-phenothiazin-10-yl)propyl]dimethylamine]",14.2,99.3,–
"COC(=O)CCC(C)C1CCC2C3C(O)CC4CC(O)CCC4(C)C3CC(O)C12C (stereo not shown) [CHOLIC ACID, METHYL ESTER, methyl 4-{5,9,16-trihydroxy-2,15-dimethyltetracyclo[8.7.0.0^{2,7}.0^{11,15}]heptadecan-14-yl}pentanoate]",22.6,81,–
"CCN(CC)CCOc1ccc(C(=C(Cl)c2ccccc2)c2ccccc2)cc1 [CLOMIPHENE, {2-[4-(2-chloro-1,2-diphenylethenyl)phenoxy]ethyl}diethylamine]",12.9,100,–
"Clc1ccccc1C(c1ccccc1)(c1ccccc1)n1ccnc1 [CLOTRIMAZOLE, 1-[(2-chlorophenyl)diphenylmethyl]-1H-imidazole]",10.2,100,–
CC(=O)OC[C@H]1O[C@@H](Oc2cc(OC(C)=O)c3c(=O)cc(-c4ccc(OC(C)=O)cc4)oc3c2)[C@H](OC(C)=O)[C@@H](OC(C)=O)[C@@H]1OC(C)=O [COSMOSIIN HEXAACETATE],12.9,100,–
"C=C1C(=O)OC2CC1C(OC(C)=O)CC(C)=CCCC(C)=CCCC2(C)O (stereo not shown) [CRASSIN ACETATE, 12-hydroxy-4,8,12-trimethyl-16-methylidene-15-oxo-14-oxabicyclo[11.3.1]heptadeca-4,8-dien-2-yl acetate]",–,–,"activity at 10 µM ([1]; Table S1): 0.2%; activity at 10 µM (3T3 fibroblast cells; 10 uM, Table S1): 2.5%"
"CC1COC2=C1C(=O)C(=O)c1c2ccc2c1CCCC2(C)C (stereo not shown) [CRYPTOTANSHINONE, 6,6,14-trimethyl-12-oxatetracyclo[8.7.0.0^{2,7}.0^{11,15}]heptadeca-1(10),2(7),8,11(15)-tetraene-16,17-dione]",4.5,87,–
"C=CC(C1=CC(=O)C=CC1=O)c1ccccc1 (stereo not shown) [DALBERGIONE, 2-(1-phenylprop-2-en-1-yl)cyclohexa-2,5-diene-1,4-dione]",12.4,97.5,–
"C=CC(C1=CC(=O)C(OC)=CC1=O)c1ccc(O)cc1 (stereo not shown) [DALBERGIONE, 4-METHOXY-4'-HYDROXY-, 2-[1-(4-hydroxyphenyl)prop-2-en-1-yl]-5-methoxycyclohexa-2,5-diene-1,4-dione]",5.1,94.8,–
"C#C[C@]1(O)CC[C@H]2[C@@H]3CCC4=Cc5oncc5C[C@]4(C)[C@H]3CC[C@@]21C [DANAZOL, (1S,2R,13R,14S,17R,18S)-17-ethynyl-2,18-dimethyl-7-oxa-6-azapentacyclo[11.7.0.0^{2,10}.0^{4,8}.0^{14,18}]icosa-4(8),5,9-trien-17-ol]",0.9,90.2,"pEC50 ([1]; Table S2, amastigotes, read-out: T. cruzi EC50): 5.16"
"CC1(C)C=CC(=O)C2(C)C1CC(=O)C1(C)C2CCC2(C)C(c3ccoc3)OC(=O)C3OC321 (stereo not shown) [DEACETOXY-7-OXISOGEDUNIN, 7-(furan-3-yl)-1,8,12,16,16-pentamethyl-3,6-dioxapentacyclo[9.8.0.0^{2,4}.0^{2,8}.0^{12,17}]nonadec-14-ene-5,13,19-trione]",3.9,100,–
"CC1(C)C(=O)C=CC2(C)C1CC(=O)C1(C)C2CCC2(C)C(c3ccoc3)OC(=O)C3OC321 (stereo not shown) [DEACETOXY-7-OXOGEDUNIN, 7-(furan-3-yl)-1,8,12,16,16-pentamethyl-3,6-dioxapentacyclo[9.8.0.0^{2,4}.0^{2,8}.0^{12,17}]nonadec-13-ene-5,15,19-trione]",4.9,75.8,–
"CC1(C)C(=O)C=CC2(C)C1CC(O)C1(C)C2CCC2(C)C(c3ccoc3)OC(=O)C3OC321 (stereo not shown) [DEACETYLGEDUNIN, 7-(furan-3-yl)-19-hydroxy-1,8,12,16,16-pentamethyl-3,6-dioxapentacyclo[9.8.0.0^{2,4}.0^{2,8}.0^{12,17}]nonadec-13-ene-5,15-dione]",4.4,76,–
CC1(C)C2CC(=O)O[C@@]3(C)C4=CC(=O)O[C@@H](c5ccoc5)[C@]4(C)CCC3[C@@]2(C)C=C[C@H]1O (stereo partly shown) [DEOX[…]],13.2,82.7,–

# Source: article PMC4102417 (PLoS Neglected Tropical Diseases, 2014)
